Patent US10485235B2, “Aryloxypyrimidinyl ethers as herbicides” (FMC Corporation, priority 2015, dated 2019)

Key:
Type in all cases: in vivo
[1] = tested on: pigweed (Amaranthus retroflexus); experiment: Test A postemergence, pigweed; conditions: postemergence, 0 to 100 scale, 0 is no effect, 100 is complete control, approximately 10 days
Method in brief: (§1)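 Approximately 10-day greenhouse assay. Formulated chemical (non-phytotoxic solvent plus surfactant) applied preemergence to soil over seeds or postemergence to plants of 2 to 10 cm. Endpoint: visual percent control, 0–100.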

corn (Zea mays) = experiment: Test A postemergence, corn; conditions: postemergence, 0 to 100 scale, 0 is no effect, 100 is complete control, approximately 10 days
Method in brief: as §1

[2] = tested on: blackgrass (Alopecurus myosuroides); experiment: Test A postemergence, blackgrass; conditions: postemergence, 0 to 100 scale, 0 is no effect, 100 is complete control, approximately 10 days
Method in brief: as §1

[3] = tested on: wheat (Triticum aestivum); experiment: Test A postemergence, wheat; conditions: postemergence, 0 to 100 scale, 0 is no effect, 100 is complete control, approximately 10 days
Method in brief: as §1

kochia (Kochia scoparia) [4] = experiment: Test A preemergence, kochia; conditions: Preemergence, 0 to 100 scale (0 no effect, 100 complete control)
Method in brief: as §1

[5] = tested on: ragweed (common ragweed, Ambrosia elatior); experiment: Test A preemergence, ragweed; conditions: Preemergence, 0 to 100 scale (0 no effect, 100 complete control)
Method in brief: as §1

[6] = tested on: barnyardgrass (Echinochloa crus-galli); experiment: Test B flooded paddy test, barnyardgrass; conditions: 250 g ai/ha, Flood; visual rating after 13 to 15 days; scale 0 to 100, 0 is no effect, 100 is complete control
Method in brief: (§2)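 Visual injury scored 0 (no effect) to 100 (complete control) relative to controls 13-15 days after treatment in greenhouse. Treatment: test compound added into paddy water of pots flooded 3 cm over soil, holding 2-leaf-stage plants; water level kept constant.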

[7] = tested on: foxtail, giant (giant foxtail, Setaria faberii); experiment: Test A postemergence, giant foxtail; conditions: postemergence, 0 to 100 scale, 0 is no effect, 100 is complete control, approximately 10 days
Method in brief: as §1

[8] = tested on: ducksalad (Heteranthera limosa); experiment: Test B flooded paddy test, ducksalad; conditions: 250 g ai/ha, Flood; visual rating after 13 to 15 days; scale 0 to 100, 0 is no effect, 100 is complete control
Method in brief: as §2

[9] = tested on: pigweed (Amaranthus retroflexus); experiment: Test A preemergence, pigweed; conditions: Preemergence, 0 to 100 scale (0 no effect, 100 complete control)
Method in brief: as §1

rice (Oryza sativa) = experiment: Test B flooded paddy test, rice; conditions: 250 g ai/ha, Flood; visual rating after 13 to 15 days; scale 0 to 100, 0 is no effect, 100 is complete control
Method in brief: as §2

[10] = tested on: ryegrass, Italian (Italian ryegrass, Lolium multiflorum); experiment: Test A preemergence, Italian ryegrass; conditions: Preemergence, 0 to 100 scale (0 no effect, 100 complete control)
Method in brief: as §1

[11] = tested on: foxtail, giant (giant foxtail, Setaria faberii); experiment: Test A preemergence, giant foxtail; conditions: Preemergence, 0 to 100 scale (0 no effect, 100 complete control)
Method in brief: as §1

kochia (Kochia scoparia) [12] = experiment: Test A postemergence, kochia; conditions: postemergence, 0 to 100 scale, 0 is no effect, 100 is complete control, approximately 10 days
Method in brief: as §1

[13] = tested on: barnyardgrass (Echinochloa crus-galli); experiment: Test A preemergence, barnyardgrass; conditions: Preemergence, 0 to 100 scale (0 no effect, 100 complete control)
Method in brief: as §1

[14] = tested on: galium (catchweed bedstraw, Galium aparine); experiment: Test A postemergence, galium; conditions: postemergence, 0 to 100 scale, 0 is no effect, 100 is complete control, approximately 10 days
Method in brief: as §1

[15] = tested on: barnyardgrass (Echinochloa crus-galli); experiment: Test A postemergence, barnyardgrass; conditions: postemergence, 0 to 100 scale, 0 is no effect, 100 is complete control, approximately 10 days
Method in brief: as §1

[16] = tested on: ryegrass, Italian (Italian ryegrass, Lolium multiflorum); experiment: Test A postemergence, Italian ryegrass; conditions: postemergence, 0 to 100 scale, 0 is no effect, 100 is complete control, approximately 10 days
Method in brief: as §1

[17] = tested on: ragweed (common ragweed, Ambrosia elatior); experiment: Test A postemergence, ragweed; conditions: postemergence, 0 to 100 scale, 0 is no effect, 100 is complete control, approximately 10 days
Method in brief: as §1

[18] = tested on: sedge, umbrella (small-flower umbrella sedge, Cyperus difformis); experiment: Test B flooded paddy test, umbrella sedge; conditions: 250 g ai/ha, Flood; visual rating after 13 to 15 days; scale 0 to 100, 0 is no effect, 100 is complete control
Method in brief: as §2

| Compound | Plant response rating, Pigweed ([1]; 31 g ai/ha) | Plant response rating, Pigweed ([1]; 125 g ai/ha) | Plant response rating, Corn (corn (Zea mays); 31 g ai/ha) | Plant response rating, Corn (corn (Zea mays); 125 g ai/ha) | Plant response rating, Blackgrass ([2]; 31 g ai/ha) | Plant response rating, Blackgrass ([2]; 125 g ai/ha) | Plant response rating, Wheat ([3]; 31 g ai/ha) | Plant response rating, Wheat ([3]; 125 g ai/ha) | Plant response rating, Kochia (kochia (Kochia scoparia) [4]; 31 g ai/ha) | Plant response rating, Kochia (kochia (Kochia scoparia) [4]; 125 g ai/ha) | Plant response rating, Ragweed ([5]; 31 g ai/ha) | Plant response rating, Ragweed ([5]; 125 g ai/ha) | Plant response rating, Barnyardgrass [6] | Plant response rating, Foxtail, Giant ([7]; 31 g ai/ha) | Plant response rating, Foxtail, Giant ([7]; 125 g ai/ha) | Plant response rating, Ducksalad [8] | Plant response rating, Pigweed ([9]; 31 g ai/ha) | Plant response rating, Pigweed ([9]; 125 g ai/ha) | Plant response rating, Rice (rice (Oryza sativa)) | Plant response rating, Ryegrass, Italian ([10]; 31 g ai/ha) | other results |
| --- | --- | --- | --- | --- | --- | --- | --- | --- | --- | --- | --- | --- | --- | --- | --- | --- | --- | --- | --- | --- | --- |
| N#CCCCOc1c(Cl)cccc1Oc1ncc(Cl)cn1 [Compound 45] | 20 | 50 | 0 | 10 | 0 | 0 | 0 | 0 | 0 | 30 | 0 | 0 | 0 | 0 | 10 | 20 | 20 | 70 | 0 | 0 | Plant response rating, Ryegrass, Italian ([10]; 125 g ai/ha): 0; Plant response rating, Foxtail, Giant ([11]; 31 g ai/ha): 0; Plant response rating, Foxtail, Giant ([11]; 125 g ai/ha): 30; Plant response rating, Kochia (kochia (Kochia scoparia) [12]; 31 g ai/ha): 20; Plant response rating, Kochia (kochia (Kochia scoparia) [12]; 125 g ai/ha): 50; Plant response rating, Barnyardgrass ([13]; 31 g ai/ha): 0; Plant response rating, Barnyardgrass ([13]; 125 g ai/ha): 10; Plant response rating, Galium ([14]; 31 g ai/ha): 10; Plant response rating, Galium ([14]; 125 g ai/ha): 20; Plant response rating, Barnyardgrass ([15]; 31 g ai/ha): 0; Plant response rating, Barnyardgrass ([15]; 125 g ai/ha): 10; Plant response rating, Ryegrass, Italian ([16]; 31 g ai/ha): 0; Plant response rating, Ryegrass, Italian ([16]; 125 g ai/ha): 0; Plant response rating, Ragweed ([17]; 31 g ai/ha): 10; Plant response rating, Ragweed ([17]; 125 g ai/ha): 10; Plant response rating, Sedge, Umbrella [18]: 0 |
| FC(F)(F)CCCOc1c(Cl)cccc1Oc1ncc(Cl)cn1 [Compound 46] | 50 | 90 | 10 | 20 | 0 | 40 | 0 | 0 | 0 | 80 | 0 | 0 | 0 | 20 | 60 | 98 | 0 | 100 | 0 | 0 | Plant response rating, Ryegrass, Italian ([10]; 125 g ai/ha): 10; Plant response rating, Foxtail, Giant ([11]; 31 g ai/ha): 40; Plant response rating, Foxtail, Giant ([11]; 125 g ai/ha): 100; Plant response rating, Kochia (kochia (Kochia scoparia) [12]; 31 g ai/ha): 50; Plant response rating, Kochia (kochia (Kochia scoparia) [12]; 125 g ai/ha): 80; Plant response rating, Barnyardgrass ([13]; 31 g ai/ha): 10; Plant response rating, Barnyardgrass ([13]; 125 g ai/ha): 80; Plant response rating, Galium ([14]; 31 g ai/ha): 30; Plant response rating, Galium ([14]; 125 g ai/ha): 70; Plant response rating, Barnyardgrass ([15]; 31 g ai/ha): 0; Plant response rating, Barnyardgrass ([15]; 125 g ai/ha): 30; Plant response rating, Ryegrass, Italian ([16]; 31 g ai/ha): 0; Plant response rating, Ryegrass, Italian ([16]; 125 g ai/ha): 10; Plant response rating, Ragweed ([17]; 31 g ai/ha): 0; Plant response rating, Ragweed ([17]; 125 g ai/ha): 10; Plant response rating, Sedge, Umbrella [18]: 100 |
| FC(F)(F)/C=C/COc1c(Cl)cccc1Oc1ncc(Cl)cn1 [Compound 47] | 20 | 90 | 10 | 20 | 10 | 50 | 0 | 0 | 0 | 80 | 0 | 0 | 0 | 20 | 70 | 85 | 0 | 60 | 0 | 0 | Plant response rating, Ryegrass, Italian ([10]; 125 g ai/ha): 10; Plant response rating, Foxtail, Giant ([11]; 31 g ai/ha): 30; Plant response rating, Foxtail, Giant ([11]; 125 g ai/ha): 100; Plant response rating, Kochia (kochia (Kochia scoparia) [12]; 31 g ai/ha): 50; Plant response rating, Kochia (kochia (Kochia scoparia) [12]; 125 g ai/ha): 90; Plant response rating, Barnyardgrass ([13]; 31 g ai/ha): 10; Plant response rating, Barnyardgrass ([13]; 125 g ai/ha): 50; Plant response rating, Galium ([14]; 31 g ai/ha): 50; Plant response rating, Galium ([14]; 125 g ai/ha): 80; Plant response rating, Barnyardgrass ([15]; 31 g ai/ha): 10; Plant response rating, Barnyardgrass ([15]; 125 g ai/ha): 40; Plant response rating, Ryegrass, Italian ([16]; 31 g ai/ha): 0; Plant response rating, Ryegrass, Italian ([16]; 125 g ai/ha): 10; Plant response rating, Ragweed ([17]; 31 g ai/ha): 0; Plant response rating, Ragweed ([17]; 125 g ai/ha): 10; Plant response rating, Sedge, Umbrella [18]: 100 |
